Values quoted from earlier work in article PMC4920590, “GPR142 Controls Tryptophan-Induced Insulin and Incretin Hormone Secretion to Improve Glucose Metabolism” (PLoS ONE, 2016).

System: Calcium-sensing receptor (CaSR)
Set-up: method as in PMID 24812056
Settings: rats; cited from earlier work

For C[C@@H](NCCCc1cccc(C(F)(F)F)c1)c1cccc2ccccc12 [Cinacalcet], the glucose is given as “lower glucose”.
